From patent US12486253B2, “Therapeutics for the degradation of mutant BRAF” (C4 THERAPEUTICS, INC., priority 2021, dated 2025)

Experiments:
[1] = target: T1, BRAF class III mutant G466V (Homo sapiens, UniProt P15056, G466V); assay: Western blot of engineered HEK-293T cells expressing class III mutant G466V; format: cell-based; settings: lentivirus expression
T1 construct: host or cells: HEK-293T, lentiviral expression

[2] = target: T2, BRAF class III mutation G466V (Homo sapiens, UniProt P15056, G466V); assay: Western blot of H1666 cells endogenously expressing G466V; format: cell-based; settings: 24 hours
T2 construct: cells endogenously expressing the Class III mutation G466V; host or cells: H1666
T2 sequence (P15056 2-766 G466V): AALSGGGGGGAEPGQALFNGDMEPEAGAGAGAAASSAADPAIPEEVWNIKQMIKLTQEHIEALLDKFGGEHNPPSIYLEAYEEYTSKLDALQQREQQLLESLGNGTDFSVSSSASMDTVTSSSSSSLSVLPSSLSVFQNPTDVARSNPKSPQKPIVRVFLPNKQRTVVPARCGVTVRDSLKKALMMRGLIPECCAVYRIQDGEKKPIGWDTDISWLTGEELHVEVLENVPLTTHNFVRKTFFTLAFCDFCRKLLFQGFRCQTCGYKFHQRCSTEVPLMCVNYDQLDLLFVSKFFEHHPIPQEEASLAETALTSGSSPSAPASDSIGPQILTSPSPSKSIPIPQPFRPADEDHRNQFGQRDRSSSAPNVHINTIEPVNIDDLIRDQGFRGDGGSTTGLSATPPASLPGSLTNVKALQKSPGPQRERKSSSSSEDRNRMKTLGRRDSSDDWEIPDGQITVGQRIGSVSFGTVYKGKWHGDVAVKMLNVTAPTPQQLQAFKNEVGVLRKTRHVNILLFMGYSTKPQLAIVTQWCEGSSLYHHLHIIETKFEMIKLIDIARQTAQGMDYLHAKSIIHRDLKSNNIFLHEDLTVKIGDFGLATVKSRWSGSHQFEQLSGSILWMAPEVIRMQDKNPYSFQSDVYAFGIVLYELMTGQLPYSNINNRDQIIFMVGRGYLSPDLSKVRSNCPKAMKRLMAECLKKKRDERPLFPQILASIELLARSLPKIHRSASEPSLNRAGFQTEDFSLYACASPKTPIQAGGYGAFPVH

[3] = test system: A375 cells; assay: Cellular confluence of A375 cells by live cell imaging; format: cell-based; settings: end of the 7-day experiment
[4] = test system: A375 cells; assay: CellTiter-Glo cell growth inhibition, A375 cells; format: cell-based; settings: Homo sapiens, A-375, 72 hr, mean of at least n = 3
Experimental: A375 cell viability was determined based on quantification of ATP using CellTiter-Glo® 2.0 luminescent Assay kit, which signals the presence of metabolically-active cells. Briefly, test compound was added to 384-well plates at a top concentration of 10 μM with 14 points, half log titration in duplicates. A375 cells were seeded into the 384-well plates in DMEM medium containing 10% FBS at a cell density of 250 cells per well. Cells treated in the absence of the test compound were the negative control, normalized to 100% viability, and cells treated in the absence of CellTiter-Glo® 2.0 were the positive control, normalized to 0% viability. A375 cells were incubated at 37° C. with 5% CO2 for 72 hr. CellTiter-Glo reagent was then added to the cells and Luminescence was acquired on EnVision™ Multilabel Reader (PerkinElmer, Santa Clara, CA, USA).

[5] = test system: LOXL4; assay: Global proteomics profiling, A375 cells; format: cell-based, human; settings: 300 nM, 24 hours
Experimental: Each cell line was treated in duplicate with either DMSO or Compound 157 (final concentration 300 nM) for 24 hours in an incubator at 37° C. with 5% CO2. After the 24-hour incubation, cells were harvested, washed twice with PBS, and snap frozen in liquid nitrogen. Samples were re-suspended in lysis buffer [8 M urea, 50 mM HEPES (pH 8.5), 50 mM NaCl, 1× protease inhibitor cocktail] and lysed by sonication at 4° C. with 85% amplitude in a pulse setting with 30 seconds on and 30 seconds off for a total sonication time of 5 minutes. Lysates were centrifuged at maximum speed for 10 minutes at 4° C. and the supernatant collected, reduced for 1 hour at room temperature with 5 mM TCEP, and the cysteine residues were then alkylated with 15 mM iodoacetamide (room temperature, in dark, 30 minutes). Protein content was extracted by methanol-chloroform precipitation and subsequent ice-cold acetone washes. Protein pellets were resuspended in 8 M urea, 50 mM HEPES (pH 8.5) buffer and protein concentrations were measured by BCA assay. […]
For peptide tandem mass tag (TMT) labeling, 100 μg of peptides per sample was prepared at […] concentration in 200 mM HEPES (pH 8.5), 30% acetonitrile (ACN) and each the specific TMT reagent. […] TMT reporter ion intensities were quantified by extracting the signal-to-noise ratio for each. […]

[6] = Body weight change in the A375 xenograft study; format: in vivo, BALB/c nude mice; settings: all doses, PO, A375 tumor-bearing mice
Experimental: The efficacy study was conducted in female BALB/c nude mice bearing A375 tumors. Female BALB/c nude mice were inoculated subcutaneously in the right flank with A375 tumor cells (5×10^6) in 0.2 mL of PBS supplemented with Matrigel (at a 1:1 ratio) for tumor development. Tumor volume was measured twice weekly in two dimensions using calipers, and volume (mm^3) was calculated using the formula: V=0.5 a×b^2 where a and b are the long and short diameters of the tumor in mm, respectively. Once the tumors reached an average tumor volume of 246 mm^3 (16 days after implantation), the animals were divided randomly into groups of 6, stratified to result in about equal average tumor sizes in each treatment group and treatment began on Day 0.
All agents were administered to mice bearing A375 tumors orally (PO), daily (QD; encorafenib), twice a day (BID) or three times a day (TID) for Compound 157, for 21 or 35 days. encorafenib was dosed at 35 mg/kg and Compound 157 at 0.1, 0.3, 1, 3 or 10 mg/kg twice a day or 2 mg/kg three times a day. Compound 157 was formulated in 20% PEG400+80% (25% SBECD). Body weight and MTV were measured on a 2× weekly schedule and reported as Mean±SEM.

T1 sequence (P15056 whole entry G466V): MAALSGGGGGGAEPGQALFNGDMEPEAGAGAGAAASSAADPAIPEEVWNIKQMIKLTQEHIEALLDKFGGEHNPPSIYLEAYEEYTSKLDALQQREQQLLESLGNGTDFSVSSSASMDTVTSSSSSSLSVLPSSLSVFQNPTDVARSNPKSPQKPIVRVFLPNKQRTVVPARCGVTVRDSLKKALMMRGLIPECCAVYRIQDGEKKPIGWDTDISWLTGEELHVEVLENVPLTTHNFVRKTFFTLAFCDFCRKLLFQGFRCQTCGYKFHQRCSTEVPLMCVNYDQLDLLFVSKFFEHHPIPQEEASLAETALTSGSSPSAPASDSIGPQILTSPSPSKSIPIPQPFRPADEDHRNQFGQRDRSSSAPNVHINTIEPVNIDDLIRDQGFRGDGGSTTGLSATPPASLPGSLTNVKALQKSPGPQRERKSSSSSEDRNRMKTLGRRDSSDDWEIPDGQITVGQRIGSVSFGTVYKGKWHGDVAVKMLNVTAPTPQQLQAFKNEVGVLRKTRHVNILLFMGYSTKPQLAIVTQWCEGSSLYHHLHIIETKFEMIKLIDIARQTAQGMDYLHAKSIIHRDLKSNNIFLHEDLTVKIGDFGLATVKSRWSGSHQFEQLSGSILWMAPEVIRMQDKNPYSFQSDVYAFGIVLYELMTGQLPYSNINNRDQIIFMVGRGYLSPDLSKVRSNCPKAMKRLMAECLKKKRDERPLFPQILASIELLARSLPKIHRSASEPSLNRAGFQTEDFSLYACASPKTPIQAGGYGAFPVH

Question: What does the source list for `CCN(C)S(=O)(=O)Nc1ccc(F)c(Oc2ccc3ncn([C@H]4COC5(CCN(C(=O)CC6(O)CCN(c7cc8c(cc7F)c(N7CCC(=O)NC7=O)nn8C)CC6)CC5)C4)c(=O)c3c2)c1C#N` [Compound 157, (3R)-3-[6-[2-cyano-3-[[ethyl(methyl)sulfamoyl]amino]-6-fluorophenoxy]-4-oxoquinazolin-3-yl]-8-[2-[1-[3-(2,4-dioxo-1,3-diazinan-1-yl)-5-fluoro-1-methylindazol-6-yl]-4-hydroxypiperidin-4-yl]acetyl]-1-oxa-8-azaspiro[4.5]decane]?
Answer: degradation of class III mutant G466V [1]: capable of degrading; phosphorylated ERK signal [2]: decrease; reduction in BRAF signal ([2]; includes any WT BRAF): 53%; cellular confluence [3]: ~20%; GI50 [4]: 9.3 nM; LOXL4 protein level change [5]: decreased; Mean body weight loss throughout the study [6]: ≤ 3.5%
